Reference: patent publication US11655247B2, “Nanoluc suicide substrates” (PROMEGA CORPORATION, priority 2018, dated 2023)

Experiments:
NanoLuc [1] = target: T1, NanoLuc (Oplophorus gracilirostris, UniProt Q9GV45, A31E/A60N/A81I/F95D/I117V/K70R/L54V/L99Q/M102K/N193R/P142E/Q151K/Q38R/Q45L/V71I/Y165I); assay: Inhibition of NanoLuc luciferase: blocking of furimazine luminescence after pre-incubation; type: biochemical; settings: for Inhibition of NanoLuc (bioluminescence upon later furimazine addition): compound incubated with NanoLuc first, then furimazine (10 μM) added; for Initial luminescent signal compared with furimazine: incubated with NanoLuc in DMEM for 12 minutes
Protocol: Compounds were also tested for their ability to block furimazine luminescence with NanoLuc. Typically, NanoLuc (0.4 μg/mL) in DMEM was incubated with either furimazine or test compound (50 μM) while monitoring RLU's with a GloMax® luminometer for 10-60 minutes. After the set time, the plate was removed from the instrument, and a dose of furimazine (10 μM) was added to the well containing the test compound and monitored for 10-60 minutes.
FIGS. 3A-B depicts inhibition of Nluc luciferase by furimazine-h. Furimazine-h (10 μM) was incubated with NanoLuc in NanoGlo or DMEM for 15 or 10 minutes, respectively. This bright signal rapidly degrades to a fraction of the signal observed in the furimazine positive control wells.
FIG. 9 depicts inhibition of Nluc luciferase by furimazine-h. This is a reverse addition experiment as compared to FIG. 3. Furimazine (10 μM) was incubated with NanoLuc in NanoGlo® buffer for 15 minutes.
JRW-0855 and JRW-1088 were incubated with NanoLuc in DMEM for 12 minutes. […] After the incubation period, 10 μM furimazine was added to the well.

NanoLuc [2] = target: T1, NanoLuc; type: biochemical; settings: for RLU (at 100 μM): relative value, Furimazine set to 1, NanoLuc, read three minutes after substrate addition
Protocol: Luminescence Assay Procedure:
Each compound to be screened was dissolved in DMSO (5 mM) and then further diluted to 100 μM in NANO-GLO® Luciferase Assay Buffer. Km values were determined by first serially diluting substrates two-fold into NANO-GLO® Luciferase Assay Buffer. Substrate dilutions were then combined with an equal volume of NanoLuc diluted to 4 ng/ml in TBS+0.01% BSA. Autoluminescence was measured by combining the 100 uM dilution of substrate with TBS+0.01% BSA. Luminescence and autoluminescence values were measured in a GloMax®-Multi+ luminometer three minutes after substrate addition. Signal decay was measured by combining equal volumes of 100 uM of substrate with 4 ng/ml NanoLuc in TBS+0.01% BSA and then samples were read in five minute intervals for two hours using a GloMax®-Multi+. Km was calculated using GraphPad Prism using nonlinear Michaelis-Menten regression. Signal half-life values were calculated using GraphPad Prism Non-linear decay, plateau set to zero.

[3] = Stability in solution noted at preparation; type: physicochemical; settings: note at preparation

T1 sequence (Q9GV45 28-196 with tags or gaps with the stated changes limits assumed): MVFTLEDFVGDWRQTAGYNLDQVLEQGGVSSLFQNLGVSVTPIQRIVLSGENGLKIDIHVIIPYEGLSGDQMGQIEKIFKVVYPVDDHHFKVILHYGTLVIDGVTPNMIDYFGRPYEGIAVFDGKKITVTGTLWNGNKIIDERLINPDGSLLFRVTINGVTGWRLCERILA

SMILES | Inhibition of NanoLuc (bioluminescence upon later furimazine addition) (NanoLuc [1]) | RLU (at 100 μM) (NanoLuc [2]) | Initial luminescent signal compared with furimazine (NanoLuc [1]) | Stability in solution [3] | Light output (value set to 1) (NanoLuc [2]; at 2 ng/mL NanoLuc)
O=C(NCCCCCCCCOc1ccc(Cc2nc3c(Cc4ccccc4)[nH]c(-c4ccc(O)cc4)cn-3c2=O)cc1F)c1cc2ccc(O)cc2oc1=O [JRW-1018, N-(8-(4-((8-benzyl-6-(4-hydroxyphenyl)-3-oxo-3,7-dihydroimidazo[1,2-a]pyrazin-2-yl)methyl)-2-fluorophenoxy)octyl)-7-hydroxy-2-oxo-2H-chromene-3-carboxamide] | partial Nluc inhibitors |  |  |  | 
O=C(CCc1ccc2n1[B-](F)(F)[N+]1=C(c3ccc[nH]3)C=CC1=C2)NCCCCCCOc1ccc(Cc2nc3c(Cc4ccccc4)[nH]c(-c4ccc(O)cc4)cn-3c2=O)cc1F [JRW-0900, N-(6-(4-((8-benzyl-6-(4-hydroxyphenyl)-3-oxo-3,7-dihydroimidazo[1,2-a]pyrazin-2-yl)methyl)-2-fluorophenoxy)hexyl)-3-(5,5-difluoro-7-(1H-pyrrol-2-yl)-5H-5l4,6l4-dipyrrolo[1,2-c:2′,1′-f][1,3,2]diazaborinin-3-yl)propanamide] | did not inhibit NanoLuc | 0.00094 |  |  | 
NCCOCCOCCC(=O)NCCCCCCCCOc1ccc(Cc2cc3c(Cc4ccccc4)[nH]c(-c4ccc(O)cc4)cn-3c2=O)cc1F [JRW-0925, 3-(2-(2-aminoethoxy)ethoxy)-N-(8-(4-((1-benzyl-3-(4-hydroxyphenyl)-6-oxo-2,6-dihydropyrrolo[1,2-a]pyrazin-7-yl)methyl)-2-fluorophenoxy)octyl)propanamide] | partial Nluc inhibitors | 0.02 |  |  | 
NCCCCCCOc1ccc(Cc2nc3c(Cc4ccccc4)[nH]c(-c4ccc(O)cc4)cn-3c2=O)cc1F [JRW-0855, 2-(4-((6-aminohexyl)oxy)-3-fluorobenzyl)-8-benzyl-6-(4-hydroxyphenyl)imidazo[1,2-a]pyrazin-3(7H)-one] | only partially inhibited | 0.004 | significantly lower |  | 
CN(C)c1ccc2c(-c3cc(C(=O)NCCOCCOCCC(=O)NCCCCCCCCOc4ccc(Cc5cc6c(Cc7ccccc7)[nH]c(-c7ccc(O)cc7)cn-6c5=O)cc4F)ccc3C(=O)[O-])c3ccc(N(C)C)cc3[o+]c2c1 [JRW-0927, 4-((2-(2-(3-((8-(4-((1-benzyl-3-(4-hydroxyphenyl)-6-oxo-2,6-dihydropyrrolo[1,2-a]pyrazin-7-yl)methyl)-2-fluorophenoxy)octyl)amino)-3-oxopropoxy)ethoxy)ethyl)carbamoyl)-2-(3,6-bis(dimethylamino)xanthylium-9-yl)benzoate] | did not inhibit NanoLuc | 0.0000024 |  | instability in solution | 
O=C(NCCCCCCCCOc1ccc(Cc2nc3c(Cc4ccccc4)[nH]c(-c4ccc(O)cc4)cn-3c2=O)cc1F)c1ccc(-c2c3ccc4cc(O)ccc4c3[o+]c3c2ccc2cc(O)ccc23)c(C(=O)[O-])c1 [JRW-1059, 5-((8-(4-((8-benzyl-6-(4-hydroxyphenyl)-3-oxo-3,7-dihydroimidazo[1,2-a]pyrazin-2-yl)methyl)-2-fluorophenoxy)octyl)carbamoyl)-2-(3,11-dihydroxydibenzo[c,h]xanthen-14-ium-7-yl)benzoate] | NanoLuc is not inhibited |  |  |  | 
O=C(CCOCCOCCNC(=O)c1ccc(C(=O)[O-])c(-c2c3ccc(O)cc3[o+]c3cc(O)ccc23)c1)NCCCCCCCCOc1ccc(Cc2cc3c(Cc4ccccc4)[nH]c(-c4ccc(O)cc4)cn-3c2=O)cc1F [JRW-0926, 4-((2-(2-(3-((8-(4-((1-benzyl-3-(4-hydroxyphenyl)-6-oxo-2,6-dihydropyrrolo[1,2-a]pyrazin-7-yl)methyl)-2-fluorophenoxy)octyl)amino)-3-oxopropoxy)ethoxy)ethyl)carbamoyl)-2-(3,6-dihydroxyxanthylium-9-yl)benzoate] | exemplary suicide substrates of NanoLuc | 0.04 |  |  | 
O=C(NCCCCCCOc1ccc(Cc2nc3c(Cc4ccccc4)[nH]c(-c4ccc(O)cc4)cn-3c2=O)cc1F)c1ccc(C(=O)[O-])c(-c2c3ccc(O)cc3[o+]c3cc(O)ccc23)c1 [JRW-0893, 4-((6-(4-((8-benzyl-6-(4-hydroxyphenyl)-3-oxo-3,7-dihydroimidazo[1,2-a]pyrazin-2-yl)methyl)-2-fluorophenoxy)hexyl)carbamoyl)-2-(3,6-dihydroxyxanthylium-9-yl)benzoate] | exemplary suicide substrates of NanoLuc | 0.05 |  |  | 
O=C(NCCCCCCCCOc1ccc(Cc2nc3c(Cc4ccccc4)[nH]c(-c4ccc(O)cc4)cn-3c2=O)cc1F)c1cc2cc3c4c(c2oc1=O)CCCN4CCC3 [JRW-1023, N-(8-(4-((8-benzyl-6-(4-hydroxyphenyl)-3-oxo-3,7-dihydroimidazo[1,2-a]pyrazin-2-yl)methyl)-2-fluorophenoxy)octyl)-11-oxo-2,3,6,7-tetrahydro-1H,5H,11H-pyrano[2,3-f]pyrido[3,2,1-ij]quinoline-10-carboxamide] | did not inhibit NanoLuc |  |  |  | 
[N-]=[N+]=NCCCCCCOc1ccc(Cc2nc3c(Cc4ccccc4)[nH]c(-c4ccc(O)cc4)cn-3c2=O)cc1F [JRW-0975, 2-(4-((6-azidohexyl)oxy)-3-fluorobenzyl)-8-benzyl-6-(4-hydroxyphenyl)imidazo[1,2-a]pyrazin-3(7H)-one] | exemplary suicide substrates of NanoLuc | 0.005 |  |  | 
NCCCCCCCCOc1ccc(Cc2nc3c(Cc4ccccc4)[nH]c(-c4ccc(O)cc4)cn-3c2=O)cc1F [JRW-0904, 2-(4-((8-aminooctyl)oxy)-3-fluorobenzyl)-8-benzyl-6-(4-hydroxyphenyl)imidazo[1,2-a]pyrazin-3(7H)-one] | partial Nluc inhibitors |  |  |  | 
O=c1ccc2cc(Cc3nc4c(Cc5ccccc5)[nH]c(-c5ccc(O)cc5)cn-4c3=O)ccc2o1 [JRW-0995, 8-benzyl-6-(4-hydroxyphenyl)-2-((2-oxo-2H-chromen-6-yl)methyl)imidazo[1,2-a]pyrazin-3(7H)-one] | partial Nluc inhibitors | 0.009 |  |  | 
O=C(NCCCCCCCCOc1ccc(Cc2nc3c(Cc4ccccc4)[nH]c(-c4ccc(O)cc4)cn-3c2=O)cc1F)c1ccc(-c2c3cc(F)c(O)cc3[o+]c3cc(O)c(F)cc23)c(C(=O)[O-])c1 [JRW-1058, 5-((8-(4-((8-benzyl-6-(4-hydroxyphenyl)-3-oxo-3,7-dihydroimidazo[1,2-a]pyrazin-2-yl)methyl)-2-fluorophenoxy)octyl)carbamoyl)-2-(2,7-difluoro-3,6-dihydroxyxanthylium-9-yl)benzoate] | exemplary suicide substrates of NanoLuc |  |  |  | 
Cc1cc(C)n2c1C(CCNC(=O)CCC(=O)NCCCCCCCCOc1ccc(Cc3nc4c(Cc5ccccc5)[nH]c(-c5ccc(O)cc5)cn-4c3=O)cc1F)=C1C=CC=[N+]1[B-]2(F)F [JRW-1088, N1-(8-(4-((8-benzyl-6-(4-hydroxyphenyl)-3-oxo-3,7-dihydroimidazo[1,2-a]pyrazin-2-yl)methyl)-2-fluorophenoxy)octyl)-N4-(2-(5,5-difluoro-1,3-dimethyl-5H-5λ^4,6λ^4-dipyrrolo[1,2-c:2′,1′-f][1,3,2]diazaborinin-10-yl)ethyl)succinamide] | only partially inhibited |  | significantly lower |  | 
O=c1c(Cc2ccco2)nc2c(Cc3ccccc3)[nH]c(-c3ccccc3)cn1-2 [Furimazine, 8-benzyl-2-(furan-2-ylmethyl)-6-phenylimidazo[1,2-a]pyrazin-3(7H)-one, reference compound] |  | 1 |  |  | ~2.0×10^7 RLU
O=c1c(Cc2ccc(OCCCCCCS(=O)(=O)[O-])c(F)c2)nc2c(Cc3ccccc3)[nH]c(-c3ccc(O)cc3)cn1-2.[Na+] [JRW-0892-2, Sodium 6-(4-((8-benzyl-6-(4-hydroxyphenyl)-3-oxo-3,7-dihydroimidazo[1,2-a]pyrazin-2-yl)methyl)-2-fluorophenoxy)hexane-1-sulfonate] | exemplary suicide substrates of NanoLuc | 0.04 |  |  | 
